This note sets out measurements from a melting point compilation (Tetko et al.; mined from patent text by program, amines drawn as free bases though some values may be those of a salt).

The structures appear in SMILES notation.

By melting point is commonly meant the temperature of the solid-liquid transition. `Cc1cc(-n2ccnc2)c2cccc(OCc3c(Cl)ccc(S(=O)(=O)N4CCC[C@H]4C(=O)N4CCN(C(=O)OC(C)(C)C)CC4)c3Cl)c2n1` returned a melting point of 98 °C.

In turn, `O=C(Nc1ccc(C2=CCN(C(=O)OCc3ccccc3)CC2)cc1)OCc1ccccc1` registered a melting point of 146 to 148 °C.

Consider `CCCN1C(=O)CC(=O)N(CCC)C1=O`, for which the melting point is 77 to 80 °C.

Compound `Cc1ccc(C(=O)NC(CCCCCl)C(=O)O)cc1` (centres undefined) registered a melting point of 177 to 181 °C.

As for `CCCN1Cc2cncn2C(c2ccc(C#N)cc2)C1=O` (centres undefined), the melting point fell in the range of 97 to 98 °C.

Turning to `COc1ccc2c(c1)CCc1cc(OC)ccc1N2`, the melting point fell in the range of 123 to 124 °C.

As for `c1ccc2c(c1)CNc1ccccc1N2`, the melting point lay in the range of 114 to 116 °C.

As for `CCc1cc(C(=O)c2ccccc2Cl)c(-n2c(C)nnc2CNC(=O)c2[nH]c3ccccc3c2C)s1`, the melting point was in the range of 143 to 147 °C.

On to `CCOC(=O)c1cc2ccccc2n1CC#N`, for which the melting point fell in the range of 65 to 67 °C.

Compound `Cc1ccc2nc(-c3cccc(C(=O)O)c3)oc2c1` yielded a melting point of 239 to 241 °C.

Compound `COc1cccc2c1OCN(CCc1ccccc1)C2` returned a melting point of 63 to 66 °C.

`CN(CCOc1ccc(C=O)cc1)c1ncccn1`: the melting point was in the range of 74 to 75 °C.

For the compound `N=C(Nc1ccccc1)N1CCC1`, the melting point was in the range of 116 to 119 °C.

Turning to `CCCCc1cc(SCc2ccc(-c3ccc(C(F)(F)F)cc3)cc2)ccc1OCC(=O)O`, the melting point is 155 to 157 °C.

For the compound `C#Cc1ccc(OC2CCCCO2)cc1` (centres undefined), the melting point was found to be 65 °C.

In turn, `COc1nc(Cl)nc(Nc2ccc(OC(=O)C(C)(C)Br)cc2)n1` had a melting point of 107 to 108 °C.

For `CCOC(=O)C1CCCn2c(cc3ccccc32)C1` (centres undefined), the melting point lay within 69 to 70 °C.

Regarding `CCCCCCCCCCCC(=O)Nc1ccc2nc(S)[nH]c2c1`, the melting point lay in the range of 266 to 267 °C.

For the compound `CCCCOC1c2ccccc2C(=O)N(CC2CC2)C1(/C=C/C(=O)OCC)CNC(=O)OC(C)(C)C` (centres undefined), the melting point lay in the range of 166 to 167 °C.

In turn, `O=C(O)CN1C(=O)C(NC(=O)[C@@H](S)Cc2ccccc2)CCCc2ccccc21` (some centres undefined) gave a melting point of 107 to 111 °C.

In turn, `O=C(c1ccc2ccccc2n1)N1CCN=C1Nc1c(Cl)cccc1Cl` returned a melting point of 194 to 196 °C.

Turning to `C=CC(=O)NCc1cc([N+](=O)[O-])ccc1C`, the melting point was in the range of 155 to 158 °C.

Compound `CCN(c1ccccc1)c1ccc(C(=O)c2ccccc2)cc1N` displayed a melting point of 82 to 82.5 °C.

Turning to `N#Cc1ccc(OCc2ccc(Cl)c(Cl)c2)cc1`, the melting point lay within 222 to 223 °C.

Take `CCOC(=O)C1=C(C)NC(c2cscn2)=NC1c1ccc(F)cc1` (centres undefined): the melting point was 118 to 120 °C.

`N#Cc1cccc(Oc2ncccc2OCCCc2ccncc2O)c1` displayed a melting point of 84 to 86 °C.

As to `CCOc1cccc(-c2cc(F)c(NC(=O)c3ccccc3CO)c(Cl)c2)c1`, the melting point was 139 to 142 °C.

On to `COc1ccc2cc(-c3nc(-c4ccc(C)cc4)no3)c(=O)oc2c1`, for which the melting point amounted to 227 °C.

For `CC1(C)CC(NC(=O)c2ccc(-c3cc4cc(Cl)c(Cl)cc4[nH]3)c(OCc3ccccc3)c2)CC(C)(C)N1`, the melting point was 220 °C.

Take `NC1=Nc2ccccc2CC1`: the melting point lay in the range of 135 to 136 °C.

As for `CCc1cc2c(s1)C(C(=O)O)CC2=O` (centres undefined), the melting point was 128 to 132 °C.

The compound `CCOC(=O)C1=C(NC(=O)Nc2cc(C(=O)OC(C)C)c(F)cc2Br)CCC1` returned a melting point of 166 to 168 °C.

On to `N#Cc1cc(-c2cccc(F)c2)c[nH]c1=O`, for which the melting point fell in the range of 261 to 266 °C.

`COC(=O)c1cccc(O)c1O` yielded a melting point of 79 to 81 °C.

Take `COC(=O)C1CSC(c2cc3ccccc3n2C)=N1` (centres undefined): the melting point lay in the range of 78 to 80 °C.

`COC(=O)C1=NNC(C)=C(C(=O)OC(C)C)C1c1cccc([N+](=O)[O-])c1` (centres undefined) had a melting point of 193 °C.

`CN1C(=O)CCC2=C1CCc1c(F)cccc12` displayed a melting point of 137 to 138 °C.

As to `COc1ccc(Cn2nnnc2C(O)c2ccccc2Cl)cc1` (racemic), the melting point lay in the range of 128 to 130 °C.

With `CCOC(=O)c1ccc(N)cc1F`, the melting point fell in the range of 110 to 112 °C.

As to `CC(=O)Nc1cccc2c1C(=O)c1c-2n[nH]c1-c1ccc(N2CCOCC2)cc1`, the melting point was > 300 °C.

The compound `c1ccc(C(N=C2NCCCN2)c2ccccc2)cc1` came in with a melting point of 238 to 242 °C.

Turning to `Cc1ccc2c(=O)n3nc(C)cc3[nH]c2n1`, the melting point is > 300 °C.

Take `CCOC(=O)c1c(NCCc2ccccc2)n[nH]c1C`: the melting point fell in the range of 138 to 139 °C.

With `CC(=O)OCN1C(=O)CON(C(C)=O)C1c1ccccc1` (centres undefined), the melting point lay in the range of 75 to 76 °C.

Consider `CCNC1=NS(=O)N=C1NCCSCc1ccc(CN(C)C)o1` (centres undefined), for which the melting point lay within 68 to 74 °C.

As to `O=C1c2ccc(Nc3ccc(F)cc3F)cc2CCc2cc(OCCCO)ccc21`, the melting point is 154 °C.

`COc1ccc2c(c1)c(CC(=O)Oc1cccc(CO[N+](=O)[O-])c1)c(C)n2C(=O)c1ccc(Cl)cc1` returned a melting point of 115 to 117 °C.

Consider `CCOC(=O)C1=CC(C2CC2)c2c(ccc(-c3cc4c(s3)C(O)CCC4)c2OC)C1=O` (centres undefined), for which the melting point was 183 to 185 °C.

In turn, `O=C(CCCN1CCOCC1)c1ccc2c(c1)C(=O)c1cc(C(=O)CCCN3CCOCC3)ccc1-2` yielded a melting point of 174 to 176 °C.

The compound `COc1ccc(CC2Cc3cc(C)cnc3C(O)C2)cc1` (single isomer, unassigned; (+)) had a melting point of 132 to 134 °C.

`Cc1cc(-c2cc(COS(C)(=O)=O)c(=O)n(CC=Cc3ccc(Cl)cc3)n2)ccc1F` showed a melting point of 118 to 120 °C.

For `O=C(O)c1ccc(I)cc1F`, the melting point was in the range of 158 to 159 °C.

Turning to `CC(C)(C)c1ccc(/C=C/C(=O)Nc2ccc3c(ccn3CCO)c2)cc1`, the melting point worked out at 182 °C.

Consider `CC(=O)C(=Cc1cc(O)c(O)c([N+](=O)[O-])c1)c1ccc(C)cc1`, for which the melting point fell in the range of 189 to 194 °C.

Take `CCCc1nc2c(N)nc3cccnc3c2n1Cc1cc(-c2ccc(F)cc2)no1`: the melting point lay in the range of 238 to 239 °C.

On to `CCCNC(=O)c1cnc2ccc(C)cn2c1=O`, for which the melting point was in the range of 126 to 128 °C.

`COc1ccc(OC(=O)c2c(Cl)cccc2Cl)cc1OC1CCCC1` came in with a melting point of 100 to 101 °C.

Regarding `CC(=O)OCCCCCC(=O)CC(=O)c1ccccc1`, the melting point lay within 23 to 24 °C.

The compound `CCC([O-])=C(C(=O)OCc1ccc([N+](=O)[O-])cc1)N1C(=O)CC1[N+](CC)(CC)CC` (centres undefined) had a melting point of 110 to 112 °C.

Consider `CCCc1nc2c(N)nc3cccnc3c2n1CCCCCC(N)=O`, for which the melting point lay in the range of 216 to 218 °C.

`CS(=O)(=O)N1CC2(COc3cc4c(cc32)OCO4)c2ccccc21` (centres undefined) displayed a melting point of 215 to 217 °C.

Regarding `O=C1CC2CCc3cc(O)ccc3C2=NN1c1ccccn1` (centres undefined), the melting point was 193 to 194 °C.

The compound `CCOC(=O)c1c(CN2CCSCC2)nc2cc(OC)c(OC)cc2c1-c1ccc(OC)c(OC)c1` yielded a melting point of 148 to 149 °C.

As to `O=S(=O)(Nc1ncnc(Cl)c1-c1ccc(C(F)(F)F)cc1)c1ccc(Cl)cc1`, the melting point lay in the range of 262 to 264 °C.

Compound `CCC(CC)c1ccc(C#N)c2nc(Nc3c(C)cc(Cl)cc3OC)n(C)c12` returned a melting point of 223 to 225 °C.

Compound `COc1cc2c(cc1OC)C(c1cc(N)ccc1Cl)=NN=C(C)C2` returned a melting point of 188 to 190 °C.

In turn, `C=CCCCSC1NN=C(c2ccncc2)N1c1ccccc1` (centres undefined) had a melting point of 132 to 133 °C.

The compound `CC12CCC(=O)NC1CCc1cc(-c3cnc4ccccc4c3)ccc12` (single isomer, unassigned; (+)) displayed a melting point of 265 to 266 °C.

Regarding `CC(C)(C)OC(=O)N1CCC2(CC1)CSC1=C(O2)c2cc(-c3ccccc3C(F)(F)F)ccc2C(=O)C1=O`, the melting point was 223 to 225 °C.

The compound `CN1CCN(CCSc2nc3ccccc3[nH]2)CC1` had a melting point of 93 to 95 °C.

The compound `O=C(c1ccccc1)c1c(O)c(=O)ccn1CCO` came in with a melting point of 195 to 200 °C.

With `O=C(O)c1ccccc1NCCCn1c2ccc(O)cc2c2c3c(c(-c4ccccc4Cl)cc21)C(=O)NC3=O`, the melting point is 261 to 263 °C.

For the compound `CC12CC(N3CCC4(CC3)OCCO4)C(O)CC1CCC1C2CCC2(C)C(O)C(N3CCC4(CC3)OCCO4)CC12` (centres undefined), the melting point lay in the range of 180 to 182 °C.

On to `COC(=O)c1c(F)c(F)c(N=[N+]=[N-])c(F)c1F`, for which the melting point was in the range of 53.6 to 54.3 °C.

Compound `Cn1c(C=O)cc2cccc(F)c21` displayed a melting point of 61 to 63 °C.

The compound `CC(=O)NC[C@H]1CN(c2cc(F)c(N3CCC(n4nnc(N5CCN(Cc6ccccc6)CC5)n4)CC3)c(F)c2)C(=O)O1` yielded a melting point of 188 to 190 °C.

In the case of `O=C(NNC(=O)c1cccc([N+](=O)[O-])c1)c1ccc([N+](=O)[O-])cc1`, the melting point was in the range of 250 to 251 °C.

Consider `O=C(O)c1ccc(N2CC(=O)N(S(=O)(=O)c3ccc(Cl)cc3)C2=O)cc1`, for which the melting point was 271 to 272 °C.

`CCCCN(CCCC)c1ccc(C=CC=CC=CC2=C(C#N)C(=C(C#N)C#N)OC2(c2ccccc2)C(F)(F)F)c(OC)c1` (centres undefined) registered a melting point of 208 to 210 °C.

The compound `Cc1cccc(C)c1-n1cc(C#N)c(=O)[nH]c1=O` came in with a melting point of 267 to 269 °C.

`CCCCOP(=O)(CCCC1(c2ccccn2)c2ccccc2-c2ccccc21)OCCCC` displayed a melting point of 126 to 128 °C.

Compound `CN1C(=O)C(N)N=C(c2ccccc2)c2ccncc21` (centres undefined) yielded a melting point of 94 to 118 °C.

As to `CC(C)C(S)C(=O)NC1(C(=O)NC(Cc2ccc(-c3ccccc3)nc2)C(=O)O)CCCC1` (centres undefined), the melting point was 208 to 211 °C.

`Cc1cccc(C2COc3c(ccc(O)c3O)C2)c1` (centres undefined) returned a melting point of 95 to 96 °C.

`c1ccc(CSc2nnn[nH]2)cc1` displayed a melting point of 98 to 100 °C.

As to `CC(=O)SCC(C(=O)NC(CC(=O)O)Cc1ccccc1)C(F)(F)F` (centres undefined), the melting point was in the range of 171 to 172 °C.

In turn, `N=C(NCc1ccccn1)NN=Cc1c(Cl)cccc1Cl` had a melting point of 125 to 140 °C.

Regarding `Cc1nc(N(Cc2ccccc2)Cc2ccccc2)c2nc(Cc3ccccc3)n(CCc3ccccc3)c2c1C`, the melting point lay within 139 to 141 °C.

The compound `Cc1cc2c(-c3cccc(C=O)c3)c(CC(=O)O)c(=O)oc2cc1Cl` registered a melting point of 230 to 232 °C.
